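A five-concentration, 48-hour dose response in 96-well plates underlies each endpoint, interpolated linearly between surrounding concentrations. At the GI50, growth is halved.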 Calls of active or inactive are those of the source. No stated cut-off is given here; in the data, active = GI50 up to about 1.1 µM and inactive = higher.
Legend:
Assay in all cases: inhibition of tumour cell growth, NCI panel, 48 h
[1] = system: K562
[2] = system: OVCAR-3
[3] = system: SNB-75
[4] = system: SW-620
[5] = system: NCI-H522
[6] = system: SNB-19
[7] = system: MDA-MB-435
[8] = system: COLO 205
[9] = system: TK-10
[10] = system: RPMI-8226
[11] = system: NCI-H460
[12] = system: HCC 2998
[13] = system: MOLT-4
[14] = system: MDA-N
[15] = system: HCT-15
[16] = system: DU-145
[17] = system: 786-0
[18] = system: UACC-257
[19] = system: SR
[20] = system: CAKI-1
[21] = system: MDA-MB-231
[22] = system: SF-295
[23] = system: IGROV-1
[24] = system: BT-549
[25] = system: A498
[26] = system: ACHN
[27] = system: NCI/ADR-RES
[28] = system: EKVX
[29] = system: LOX IMVI
[30] = system: U-251
[31] = system: PC-3
[32] = system: HCT-116
[33] = system: NCI-H226
[34] = system: HT-29
[35] = system: HL-60
[36] = system: SN12C
[37] = system: UO-31
[38] = system: Malme-3M
[39] = system: MCF7
[40] = system: OVCAR-8
[41] = system: HOP-62
[42] = system: Hs-578T
[43] = system: UACC-62
[44] = system: T47D
[45] = system: NCI-H23
[46] = system: SF-268
[47] = system: OVCAR-5
[48] = system: SK-MEL-28
[49] = system: KM12
[50] = system: OVCAR-4
[51] = system: SK-MEL-5
[52] = system: SK-OV-3
[53] = system: RXF 393
[54] = system: HOP-92
[55] = system: A549
[56] = system: SK-MEL-2
[57] = system: M14
[58] = system: SF-539
[59] = system: CCRF-CEM

CC(C)=CCOC(=O)C(C)=[N+]=[N-]
GI50 [1]: > 100 µM (inactive)
GI50 [2]: > 100 µM (inactive)
GI50 [3]: > 100 µM (inactive)
GI50 [4]: > 100 µM (inactive)
GI50 [5]: > 100 µM (inactive)
GI50 [6]: > 100 µM (inactive)
GI50 [7]: > 100 µM (inactive)
GI50 [8]: > 100 µM (inactive)
GI50 [9]: > 100 µM (inactive)
GI50 [10]: > 100 µM (inactive)
GI50 [11]: > 100 µM (inactive)
GI50 [12]: > 100 µM (inactive)
GI50 [13]: 59 µM (inactive)
GI50 [14]: > 100 µM (inactive)
GI50 [15]: > 100 µM
GI50 [16]: > 100 µM (inactive)
GI50 [17]: > 100 µM (inactive)
GI50 [18]: > 100 µM (inactive)
GI50 [19]: > 100 µM (inactive)
GI50 [20]: > 100 µM (inactive)
GI50 [21]: > 100 µM (inactive)
GI50 [22]: > 100 µM (inactive)
GI50 [23]: > 100 µM (inactive)
GI50 [24]: > 100 µM (inactive)
GI50 [25]: > 100 µM (inactive)
GI50 [26]: > 100 µM (inactive)
GI50 [27]: > 100 µM (inactive)
GI50 [28]: > 100 µM (inactive)
GI50 [29]: > 100 µM (inactive)
GI50 [30]: > 100 µM (inactive)
GI50 [31]: > 100 µM (inactive)
GI50 [32]: > 100 µM (inactive)
GI50 [33]: > 100 µM (inactive)
GI50 [34]: > 100 µM (inactive)
GI50 [35]: 42.6 µM (inactive)
GI50 [36]: > 100 µM (inactive)
GI50 [37]: > 100 µM (inactive)
GI50 [38]: > 100 µM (inactive)
GI50 [39]: > 100 µM (inactive)
GI50 [40]: > 100 µM (inactive)
GI50 [41]: > 100 µM (inactive)
GI50 [42]: > 100 µM (inactive)
GI50 [43]: > 100 µM (inactive)
GI50 [44]: > 100 µM (inactive)
GI50 [45]: > 100 µM (inactive)
GI50 [46]: > 100 µM (inactive)
GI50 [47]: > 100 µM (inactive)
GI50 [48]: > 100 µM (inactive)
GI50 [49]: > 100 µM (inactive)
GI50 [50]: > 100 µM (inactive)
GI50 [51]: > 100 µM (inactive)

COCCOc1nc(-c2ccccc2)nc2ccccc12
GI50 [1]: 35.5 µM (inactive)
GI50 [2]: 95.1 µM (inactive)
GI50 [3]: 60.8 µM (inactive)
GI50 [4]: 34 µM (inactive)
GI50 [5]: 35.3 µM (inactive)
GI50 [52]: 46.7 µM (inactive)
GI50 [6]: 69.2 µM (inactive)
GI50 [7]: 52.4 µM (inactive)
GI50 [8]: 32.6 µM (inactive)
GI50 [9]: 36 µM (inactive)
GI50 [10]: 15.7 µM (inactive)
GI50 [11]: 19.3 µM (inactive)
GI50 [13]: 20.6 µM (inactive)
GI50 [14]: 32.5 µM (inactive)
GI50 [15]: 19.2 µM
GI50 [16]: 54.7 µM (inactive)
GI50 [18]: > 100 µM (inactive)
GI50 [19]: 19.7 µM (inactive)
GI50 [20]: 34.7 µM (inactive)
GI50 [21]: 31 µM (inactive)
GI50 [22]: 43.1 µM (inactive)
GI50 [53]: 11.7 µM (inactive)
GI50 [23]: 98.2 µM (inactive)
GI50 [24]: 35.9 µM (inactive)
GI50 [25]: 15 µM (inactive)
GI50 [26]: 44.1 µM (inactive)
GI50 [27]: 32.6 µM (inactive)
GI50 [28]: 55.8 µM (inactive)
GI50 [29]: 47.8 µM (inactive)
GI50 [54]: 27.6 µM (inactive)
GI50 [30]: 45.8 µM (inactive)
GI50 [31]: 34.5 µM (inactive)
GI50 [32]: 46.1 µM (inactive)
GI50 [55]: 37.3 µM (inactive)
GI50 [34]: 29.6 µM (inactive)
GI50 [56]: 51.8 µM (inactive)
GI50 [35]: 29.2 µM (inactive)
GI50 [36]: 27.5 µM (inactive)
GI50 [37]: 38.6 µM (inactive)
GI50 [38]: 51.1 µM (inactive)
GI50 [39]: 37.2 µM (inactive)
GI50 [40]: 42 µM (inactive)
GI50 [41]: 22.1 µM (inactive)
GI50 [42]: 28.8 µM (inactive)
GI50 [43]: 20.7 µM (inactive)
GI50 [44]: 27.7 µM (inactive)
GI50 [57]: 27.7 µM (inactive)
GI50 [45]: 61.8 µM (inactive)
GI50 [46]: 27.7 µM (inactive)
GI50 [58]: 48.8 µM (inactive)
GI50 [47]: > 100 µM (inactive)
GI50 [48]: 53.5 µM (inactive)
GI50 [49]: 30 µM (inactive)
GI50 [50]: 37.3 µM (inactive)
GI50 [51]: 25.8 µM (inactive)

Nc1nc(Nc2ccccc2)sc1C(=O)c1c[nH]c2ccccc12
GI50 [59]: 3.2 µM (inactive)
GI50 [1]: 4.06 µM (inactive)
GI50 [2]: 13.4 µM (inactive)
GI50 [4]: 11.1 µM (inactive)
GI50 [52]: 16.6 µM (inactive)
GI50 [6]: 3.28 µM (inactive)
GI50 [7]: 11.2 µM (inactive)
GI50 [8]: 4.2 µM (inactive)
GI50 [9]: 3.09 µM (inactive)
GI50 [10]: 10.7 µM (inactive)
GI50 [11]: 4.23 µM (inactive)
GI50 [13]: 2.08 µM (inactive)
GI50 [14]: 12.4 µM (inactive)
GI50 [15]: 3.95 µM
GI50 [16]: 9.89 µM (inactive)
GI50 [17]: 5.52 µM (inactive)
GI50 [18]: 10.8 µM (inactive)
GI50 [19]: 1.45 µM (inactive)
GI50 [21]: 17.2 µM (inactive)
GI50 [53]: 8.49 µM (inactive)
GI50 [23]: 12.9 µM (inactive)
GI50 [24]: 14.8 µM (inactive)
GI50 [25]: 11.4 µM (inactive)
GI50 [26]: 15.6 µM (inactive)
GI50 [27]: 12.6 µM (inactive)
GI50 [28]: 5.94 µM (inactive)
GI50 [29]: 13.5 µM (inactive)
GI50 [54]: 16.4 µM (inactive)
GI50 [30]: 10.7 µM (inactive)
GI50 [31]: 11.6 µM (inactive)
GI50 [32]: 6.97 µM (inactive)
GI50 [55]: 7.52 µM (inactive)
GI50 [33]: 10.6 µM (inactive)
GI50 [34]: 3.73 µM (inactive)
GI50 [56]: 15.1 µM (inactive)
GI50 [35]: 19.1 µM (inactive)
GI50 [36]: 15.7 µM (inactive)
GI50 [37]: 2.56 µM (inactive)
GI50 [38]: 19.4 µM (inactive)
GI50 [39]: 11.8 µM (inactive)
GI50 [41]: 16.7 µM (inactive)
GI50 [42]: 16.3 µM (inactive)
GI50 [43]: 14.8 µM (inactive)
GI50 [44]: 6.49 µM (inactive)
GI50 [57]: 8 µM (inactive)
GI50 [45]: 17.5 µM (inactive)
GI50 [46]: 15.1 µM (inactive)
GI50 [58]: 12.4 µM (inactive)
GI50 [47]: 11.9 µM (inactive)
GI50 [48]: 11.7 µM (inactive)
GI50 [49]: 10.2 µM (inactive)
GI50 [50]: 10.3 µM (inactive)
GI50 [51]: 11.8 µM (inactive)

From ChEMBL document CHEMBL1201862, “PubChem BioAssay data set” (2004)
